PMC7961048, “Hierarchized phosphotarget binding by the seven human 14-3-3 isoforms” (Nature Communications, 2021)
Where two headings read alike, the source gives them in different places. Starred links: 1 amine or outer side, 2 acyl side, 3 side chain; linkers in the order of their positions; H or OH if unused. Non-standard residues stand in square brackets, D forms with d. Residues, ends and D or L forms follow the SMILES beside them. *: point of attachment. X1 = O=C(CCCC[C@@H]1SC[C@@H]2NC(=O)N[C@@H]21)NCCCOCCOCCOCCCN*; pT = C[C@@H](OP(=O)(O)O)[C@H](N)C(=O)O; Suc = O=C(CCC(=O)[*:2])[*:1]

Tests used:
Type in all cases: binding
14-3-3τ = molecular target: T1, 14-3-3τ (Homo sapiens, UniProt P27348); test: biochemical
T1 construct: cDNAs encoding other full-length 14-3-3 isoforms β, τ, η, and σ were obtained as codon-optimized; made in house; host or cells: E. coli BL21(DE3)
T1 sequence (P27348 1-245): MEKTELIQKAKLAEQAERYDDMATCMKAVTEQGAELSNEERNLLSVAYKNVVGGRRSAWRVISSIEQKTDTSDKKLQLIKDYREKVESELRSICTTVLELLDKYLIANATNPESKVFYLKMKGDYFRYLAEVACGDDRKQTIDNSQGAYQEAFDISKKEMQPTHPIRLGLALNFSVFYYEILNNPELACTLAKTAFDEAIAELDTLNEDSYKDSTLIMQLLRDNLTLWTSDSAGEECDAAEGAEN
Protocol: (§1) The seven full-length human 14-3-3 isoforms, produced as fusions to a maltose-binding protein (MBP), were analyzed for their interaction with four phospho-PBMs from E6 proteins of HPV types 16, 18, 33, and 35 belonging to subgroups 1 and 2 (as defined in Supplementary Fig. 1). For comparison, we also measured two non-viral phospho-PBMs originating from protein kinase RSK1[28]. We used a competitive fluorescence polarization (FP) assay that measures the displacement of a fluorescent tracer phosphopeptide (here, derived from the HSPB6 protein) bound beforehand to 14-3-3, by an increasing amount of the peptide of interest.
(§2) For affinity measurements, full-length human 14-3-3 constructs with an N-terminal MBP fusion were used. Plasmids containing the cDNAs of the full-length 14-3-3 isoforms ε, γ, and ζ were received from Prof. Lawrence Banks. cDNAs encoding other full-length 14-3-3 isoforms β, τ, η, and σ were obtained as codon-optimized for E. coli expression synthetic genes from IDT Technologies (Coralville, Iowa, USA). All 14-3-3 isoforms were fused via a three-alanine linker to the C terminus of a mutant MBP carrying the following amino acid substitutions facilitating crystallization: D83A, K84A, K240A, E360A, K363A, and D364A[62]. All resulting clones were verified by sequencing. The MBP-fused proteins were expressed in E. coli BL21(DE3) with IPTG induction. Proteins were affinity purified on an amylose column and were further purified by ion-exchange chromatography (HiTrap Q HP, GE Healthcare). Unfused 14-3-3 isoforms devoid of the flexible C-terminal tails (14-3-3βΔC, 14-3-3τΔC 14-3-3εΔC) were expressed using IPTG induction and purified by subtractive IMAC and SEC[40]. Protein concentrations were determined by UV spectroscopy. The samples were supplemented with glycerol and TCEP before aliquoting and freezing in liquid nitrogen.
(§3) Unless otherwise stated, all phosphopeptide-binding measurements were performed using full-length 14-3-3 proteins fused to the C terminus of MBP, favoring optimal solubility and a standardized parallel purification scheme.
(§4) FP was measured with a PHERAstar (BMG Labtech, Offenburg, Germany) microplate reader by using 485 ± 20 and 528 ± 20 nm band-pass filters (for excitation and emission, respectively). In direct FP measurements, a dilution series of the 14-3-3 protein was prepared in 96-well plates (96-well skirted PCR plate, 4ti-0740, 4titude, Wotton, UK) in a 20 mM HEPES pH 7.5 buffer containing 150 mM NaCl, 0.5 mM TCEP, 0.01% Tween 20, 50 nM fluorescently labeled fpB6 peptide, and 100 μM FSC, if indicated. The volume of the dilution series was 40 μl, which was later divided into three technical replicates of 10 μl upon transferring to 384-well micro-plates (low binding microplate, 384 well, E18063G5, Greiner Bio-One, Kremsmünster, Austria). In total, polarization of the probe was measured at eight different protein concentrations (whereas one contained no protein and corresponded to the free peptide). In competitive FP measurements, the same buffer was supplemented with the protein to achieve a complex formation of 60–80%, based on the direct titration. Then, this mixture was used for creating a dilution series of the unlabeled competitor (i.e., the studied peptides) and the measurement was carried out identically as in the direct experiment.
(§5) All FP experiments were done in triplicates. Analysis of FP experiments were carried out using ProFit, an in-house developed, Python-based fitting program. ProFit utilizes a Monte Carlo approach to take into account experimental variability. It generates hundreds of simulated datasets, based on the experimental data variance and fits direct and competitive measurements in pairs.

14-3-3σ = molecular target: T2, 14-3-3σ (Homo sapiens, UniProt P31947); test: biochemical
T2 construct: cDNAs encoding other full-length 14-3-3 isoforms β, τ, η, and σ were obtained as codon-optimized; made in house; host or cells: E. coli BL21(DE3)
T2 sequence (P31947 1-248): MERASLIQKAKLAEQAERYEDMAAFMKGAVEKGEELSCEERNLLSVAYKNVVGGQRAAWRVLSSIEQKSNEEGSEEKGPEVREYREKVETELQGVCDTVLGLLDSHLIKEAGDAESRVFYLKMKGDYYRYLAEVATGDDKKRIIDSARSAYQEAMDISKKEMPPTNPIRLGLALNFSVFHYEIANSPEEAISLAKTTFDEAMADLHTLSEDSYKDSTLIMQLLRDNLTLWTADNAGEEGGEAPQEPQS
Protocol: as §1, §2, §3, §4, §5

[1] = molecular target: seven human 14-3-3 isoforms; test: Affinities averaged or compared across the 14-3-3 family (ΔΔGav, KD ratios, affinity maps)
From the text: Former studies have measured the binding of the seven human 14-3-3 isoforms to unrelated phospho-motifs derived from Cystic Fibrosis Transmembrane Conductance Regulator (CFTR), Leucine-Rich Repeat Kinase 2 (LRRK2), Potassium channel subfamily K members (TASK1/3), C-Raf, the p65 subunit of the NF-κB transcription factor, and from Ubiquitin carboxyl-terminal hydrolase 8 (USP8), representing a wide variety of different 14-3-3-binding motifs, including C-terminal, internal, monovalent, or divalent motifs[40],[44]–[48].
(gray background). The color scale is either based on affinity values or on KD ratios. √ denotes affinities weaker than the limit of quantitation of the experimental assays. b Same map as in a, normalized to the strongest 14-3-3-binding motif. […] Source data are provided as a Source Data file.
All binding data and the obtained fits are provided as Supplementary Data File 1.

| SMILES | Kd (14-3-3τ) | Kd (14-3-3σ) | Binding affinities (KD) of various 14-3-3-binding motifs, 14-3-3σ (14-3-3σ; Figure 4 panel a, unit from the colour scale line, motifs measured in this work) | KD ratios, compared to LRRK2 pS910/pS935, 14-3-3β ([1]; Figure 4 panel b, 14-3-3β) | KD ratios, compared to LRRK2 pS910/pS935, 14-3-3γ ([1]; Figure 4 panel b, 14-3-3γ) | KD ratios, compared to LRRK2 pS910/pS935, 14-3-3ζ ([1]; Figure 4 panel b, 14-3-3ζ) | KD ratios, compared to LRRK2 pS910/pS935, 14-3-3η ([1]; Figure 4 panel b, 14-3-3η) | KD ratios, compared to LRRK2 pS910/pS935, 14-3-3τ ([1]; Figure 4 panel b, 14-3-3τ) | KD ratios, compared to LRRK2 pS910/pS935, average ([1]; Figure 4 panel b, average over the isoforms) | KD ratios, compared to 14-3-3γ, 14-3-3β ([1]; Figure 4 panel c, 14-3-3β) | KD ratios, compared to 14-3-3γ, 14-3-3γ ([1]; Figure 4 panel c, 14-3-3γ) | KD ratios, compared to 14-3-3γ, 14-3-3ζ ([1]; Figure 4 panel c, 14-3-3ζ) | KD ratios, compared to 14-3-3γ, 14-3-3η ([1]; Figure 4 panel c, 14-3-3η) | KD ratios, compared to 14-3-3γ, 14-3-3τ ([1]; Figure 4 panel c, 14-3-3τ) | ΔΔGav (average 14-3-3 binding free energy difference) relative to p35E6 ([1]; averaged over 14-3-3 isoforms, 295 K) | KD ratio relative to p35E6 ([1]; corresponds to ΔΔGav averaged over 14-3-3 isoforms) | Binding affinities (KD) of various 14-3-3-binding motifs, 14-3-3σ (14-3-3σ) | binding to 14-3-3 proteins ([1]; competitive FP, seven MBP-fused full-length 14-3-3 isoforms, result in words) |
| --- | --- | --- | --- | --- | --- | --- | --- | --- | --- | --- | --- | --- | --- | --- | --- | --- | --- | --- |
| CC(C)[C@H](NC(=O)[C@H](CCC(=O)O)NC(=O)[C@@H](NC(=O)[C@H](CCC(=O)O)NC(=O)[C@H](CCCNC(=N)N)NC(=O)[C@H](CCCNC(=N)N)NC(=O)[C@H](CCCNC(=N)N)NC(=O)[C@@H]1CCCN1C(=O)[C@H](CCCCN)NC(=O)[C@H](CO)NC(=O)CCC(=O)NCCCOCCOCCOCCCNC(=O)CCCC[C@@H]1SC[C@@H]2NC(=O)N[C@@H]21)[C@@H](C)OP(=O)(O)O)C(=O)O [pHPV35E6T-6R] ({X1-Suc}-SKPRRRE[pT]EV-OH) | 194 ± 37 µM | > 300 µM | √ | 8483 | 22250 | 28958 | 17708 | 20421 | 20000 | 2.51 | 1.00 | 1.95 | 1.19 | 2.72 | –1.1 ± 0.5 kJ/mol | 1.5 fold |  |  |
| CC(C)[C@H](NC(=O)[C@H](CCC(=O)O)NC(=O)[C@@H](NC(=O)[C@H](CCC(=O)O)NC(=O)[C@H](CCCNC(=N)N)NC(=O)[C@H](CCCNC(=N)N)NC(=O)[C@@H](NC(=O)[C@@H]1CCCN1C(=O)[C@H](CCCCN)NC(=O)[C@H](CO)NC(=O)CCC(=O)NCCCOCCOCCOCCCNC(=O)CCCC[C@@H]1SC[C@@H]2NC(=O)N[C@@H]21)[C@@H](C)O)[C@@H](C)OP(=O)(O)O)C(=O)O [pHPV35E6] ({X1-Suc}-SKPTRRE[pT]EV-OH) | 233 ± 14 µM | > 300 µM |  |  |  |  |  |  |  |  |  |  |  |  |  |  | √ | detectably bound |
